6 molecules from ChEMBL document CHEMBL3272277, “Stereocontrolled glycosidation of daunomycinone. Synthesis and biological evaluation of 6-hydroxy-L-arabino analogues of antitumor anthracyclines” (J Med Chem, 1976) can be followed below.

In brackets after ≈: the same amount, converted by molar mass. Where only a bound is given, the exact number is not on record here.

In data set [1] the test system is Sarcoma-180. Put plainly: Antitumor activity against mouse Sarcoma 180 cells allografted in mouse assessed as average survival time at 10 mg/kg, ip on day 1 post challenge relative to untreated control. Format: functional. To be noted: route intraperitoneal.
The next data set deals with MEF. Put plainly: Inhibition of Murine sarcoma virus (Moloney) foci formation in MEF after 72 hrs. Format: functional. To be noted: Mus musculus, read-out: ID50 (the source's name).
A short description of data set [2]: Antiproliferative activity against MEF after 72 hrs. Format: cell-based. The note with it: mouse, MEF cells; read-out: ID50.
In data set [3] the test system is Mus musculus. The data set is described as follows: Toxicity in mouse allografted with mouse Sarcoma 180 cells assessed as mortality at 2 mg/kg, ip on day 1 post challenge. The class given is organism-based. On the set-up: dose 2 mg/kg, route intraperitoneal. To be noted: in vivo.
For data set [4], the system named is Mus musculus. Put plainly: Toxicity in mouse allografted with mouse Sarcoma 180 cells assessed as mortality at 10 mg/kg, ip on day 1 post challenge. The class given is organism-based. The arrangement: dose 10 mg/kg, route intraperitoneal. To be noted: in vivo.
The subject of the next data set is HeLa. Put plainly: Cytotoxicity against human HeLa cells assessed as cloning efficiency after 8 hrs. The class given is functional. To be noted: read-out: ID50 (the source's name).
In data set [5] the test system is Mus musculus. The data set is described as follows: Toxicity in mouse allografted with mouse Sarcoma 180 cells assessed as mortality at >5 mg/kg, ip on day 1 post challenge. Format: organism-based. The note with it: in vivo.
The subject of data set [6] is Sarcoma-180. Put plainly: Antitumor activity against mouse Sarcoma 180 cells allografted in mouse assessed as average survival time at 2 mg/kg, ip on day 1 post challenge relative to untreated control. Format: functional. To be noted: route intraperitoneal.

As usually defined, the T/C is the result in the treated group divided by that in the control group, in per cent.

Take `COc1cccc2c1C(=O)c1c(O)c3c(c(O)c1C2=O)C[C@@](O)(C(C)=O)C[C@@H]3O[C@H]1C[C@H](N)[C@@H](O)[C@H](CO)O1.Cl`: in the data set on Sarcoma-180 [1], the T/C is 167%. The IC50 with MEF was 0.1 µg/mL; in the data set with HeLa, more than 10 µg/mL. In data set [2], the GI50 at 72 h worked out at 0.256 µg/mL. The Activity result in the data set on Mus musculus [3] and in the data set with Mus musculus [4] was “Non-toxic” throughout.
With `COc1cccc2c1C(=O)c1c(O)c3c(c(O)c1C2=O)C[C@@](O)(C(=O)CO)C[C@@H]3O[C@H]1C[C@H](N)[C@@H](O)[C@H](CO)O1`, the T/C with Sarcoma-180 [1] worked out at 162%. Besides, the IC50 with MEF was determined as 0.025 µg/mL (≈ 0.0447 µM); in the data set with HeLa it was 1 µg/mL (≈ 1.79 µM). The GI50 at 72 h in data set [2] amounted to 0.05 µg/mL (≈ 0.0894 µM). Further, the Activity result in the data set with Mus musculus [3] and in the data set on Mus musculus [4] was “Non-toxic” throughout.
`COc1cccc2c1C(=O)c1c(O)c3c(c(O)c1C2=O)C[C@@](O)(C(C)=O)C[C@@H]3O[C@H]1C[C@H](N)[C@@H](O)[C@H](C)O1`: the Activity result in the data set on Mus musculus [5] is recorded as “Toxic”.
For the molecule `COc1cccc2c1C(=O)c1c(O)c3c(c(O)c1C2=O)C[C@@](O)(C(C)=O)C[C@@H]3O[C@H]1C[C@H](N)[C@H](O)[C@H](C)O1` [DAUNORUBICIN], the values for the IC50 in the data set with MEF and in the data set on HeLa were 0.0055 µg/mL (≈ 0.0104 µM) and 0.013 µg/mL (≈ 0.0246 µM), respectively. Also, in the data set on Sarcoma-180 [6], the T/C is recorded as 192%. In data set [2], the GI50 at 72 h was 0.009 µg/mL (≈ 0.0171 µM).
Taken in the same sequence, the figures for `COc1cccc2c1C(=O)c1c(O)c3c(c(O)c1C2=O)C[C@@](O)(C(=O)CO)C[C@@H]3O[C@H]1C[C@H](N)[C@H](O)[C@H](C)O1.Cl` [DOXORUBICIN HYDROCHLORIDE] were 0.0025 µg/mL, 0.11 µg/mL, 210% and 0.007 µg/mL.
In the case of `COc1cccc2c1C(=O)c1c(O)c3c(c(O)c1C2=O)C[C@@](O)(C(=O)CO)C[C@@H]3O[C@H]1C[C@H](N)[C@@H](O)[C@H](C)O1` [EPIRUBICIN], the Activity result with Mus musculus [5] was “Toxic”.
